Test results as given in a melting point compilation (Tetko et al.; mined from patent text by program, amines drawn as free bases though some values may be those of a salt).

Row | Compound | melting point [°C]
1 | NNC(=O)c1ncc2[nH]c3ccccc3c2n1 | > 340
2 | S=c1nc2ccc(Br)cn2c(=S)n1-c1ccc(Br)cn1 | 77
3 | CC12CCC(O)CC1=CCC1C2CCC2(C)C(n3ncnn3)=CCC12 (stereo not given) | 195 to 198
4 | CCC(C)C(=O)NC1CCC(CCN2CCN(c3nccc4c3OCC4)CC2)CC1 (racemic) | 196
5 | O=C1c2ccccc2-c2cc(O)cc3cccc1c23 | 297 to 298
6 | Nc1ccc(Nc2c(NCc3ccccc3)cc(C(=O)O)cc2S(=O)(=O)Nc2ccc(N)cc2)cc1 | 238
7 | CN1C2CCC1CC(O)(c1ccc(F)cc1)C2 (stereo not given) | 169
8 | Nc1c2c(nc3[nH]c4ccccc4c13)CCCC2=O | > 300
9 | COC(=O)Nc1nc(OC)nc(OC)n1 | 118 to 122
10 | CCOC(=O)c1cnn(-c2ccccc2[N+](=O)[O-])c1C(=O)OCC | 45 to 46
11 | c1cc(OC[C@H]2CO2)cc(-c2noc3ncccc23)c1 | 91 to 93
12 | CC(Oc1ccc(N(C)c2cc3ccc(Cl)cc3c(Cl)n2)cc1)C(=O)O (stereo not given) | 136
13 | O=C(Nc1ccc(F)cc1)C12CC3CC(CC(C3)C1)C2 | 170 to 171
14 | Nc1ccc2nc(-c3ccccc3)cc(OCC(=O)N3CCOCC3)c2c1 | 194
15 | CN(C)CCSc1ncccc1C(O)c1ccccc1 (stereo not given) | 88 to 89
16 | CCNCC1CCN(c2c(F)cc3c(=O)c(C(=O)O)cn(CC(F)(F)F)c3c2F)C1 (stereo not given) | 222 to 224
17 | CCCn1c(=O)c2c(N)n(CC(=O)c3cccc(OC)c3)nc2n(Cc2ccccc2)c1=O | 184 to 185
18 | COc1cc(OC)c2c(=O)[nH]c(-c3ccc(CN4CCN(C)CC4)cc3)nc2c1 | 275 to 277
19 | COC(=O)CCCCCCCn1cc(-c2ccccc2)c(-c2ccccc2)nc1=O | 80 to 83
20 | CCCCCCN(Cc1cccnc1)C(Nc1cc(C(C)(C)C)c(O)c(C(C)(C)C)c1)=C1C(=O)OC(C)(C)OC1=O | 134 to 136
21 | CC(C)(C)[C@@H](NS(=O)(=O)c1ccc(Oc2ccc(Cl)cc2)cc1)C(=O)O | 138 to 140
22 | Cc1nc2n(c1CCN(C)C)CCCC2OCc1ccccc1 (stereo not given) | 68 to 70
23 | COc1ccccc1S(=O)(=O)N(C)c1cccc2cc(C3=NCC(CCO)S3)[nH]c12 (stereo not given) | 154 to 155
24 | O=C1Nc2ccc(Br)cc2C(c2ccccc2)=NC1O (stereo not given) | 190 to 192
25 | CCC1C(C)=NN=C(c2ccc(OC)c(OC)c2)c2cc(OC)c(OCCCN(C)C)cc21 (stereo not given) | 126 to 128

Row | Compound | melting point [°C]
26 | CCCCCCC(=O)Nc1ncnc(NC2CC2)n1 | 195 to 197
27 | COc1ccc(-n2c(=O)c(C(=O)C3=C(O)CCCC3=O)nc3c(Cl)cccc32)cc1 | 249 to 251
28 | CC(CNC(=O)N(CCC(F)(F)F)CCC12CC3CC(CC(C3)C1)C2)Cc1ccncc1 (stereo not given) | 81.1 to 84.1
29 | c1ccc(C(c2ccccc2)(c2ccns2)n2ccnc2)cc1 | 164 to 167
30 | Cc1nc2ccccn2c(=O)c1CCN1CCC(C(=O)c2ccc(F)cc2)CC1 | 139
31 | CSc1coc2cc(NS(C)(=O)=O)c(Oc3ccccc3)cc2c1=O | 175 to 176
32 | COC(=O)C1=Cc2cc(-c3ccc(Cl)cc3)ccc2S(=O)(=O)CC1 | 168 to 170
33 | Cc1oc(-c2ccccc2)nc1COc1cncc(COc2ccc(CC(=O)O)cc2)c1 | 141 to 142
34 | CNN(NC)C(=O)Sc1cc(C)ccc1C(=O)OC | 79.4 to 80
35 | CCCCOC(Cc1ccc(OCCN2c3ccccc3Oc3ccccc32)cc1)C(=O)O (stereo not given) | 84 to 88
36 | CC(C)Cc1ccc2sc3cc(CC(=O)O)ccc3c2c1 | 133 to 135
37 | O=C(O)c1ccc(OCCCCO)cc1 | 124
38 | Cc1cc(-c2cc(C(F)(F)F)n3ncc(C(=O)Nc4cccc(S(=O)(=O)N5CCCC5)c4)c3n2)ccc1Cl | 230
39 | Cc1ccc(S(C)(=O)=O)cc1-c1n[nH]c2nc(Oc3ccc(F)cc3F)ncc12 | 133 to 135
40 | Cc1ccc(-c2ccc3nnn(Cc4ccc5ncccc5c4)c3n2)s1 | 154 to 156
41 | Cc1nsc2nc3ccccc3n12 | 192 to 193
42 | CCOC(=O)Nc1cn2nc(OCc3cc(OC)ccc3OC)ccc2n1 | 210 to 211
43 | CCC1(C)CN(c2c(F)c(N)c3c(=O)c(C(=O)O)cn(C4CC4)c3c2OC)CCC1NC (stereo not given) | 164 to 166
44 | CCOC(=O)c1c(C)nn(C)c1CSC(=N)N | 175 to 180
45 | COc1ccccc1-c1ccc(-c2ccc(C(=O)O)cc2)cc1-c1ccc2c(c1)C(C)(C)CCC2(C)C | 133 to 136
46 | Clc1ccc(C2CN3CCN=C3c3ccccc32)cc1 (single isomer, unassigned; (-)) | 184
47 | Cc1cc(NC(=O)NC(=O)c2c(Cl)cccc2Cl)nc(C)c1-c1ccccc1 | 230 to 235
48 | O=C(O)CCN1C(=O)c2ccc(C(=O)O)cc2C1=O | 240 to 242
49 | COc1ccc2oc(C(=O)c3cc(F)ccc3N3CCOCC3)cc2c1 | 85 to 88
50 | CC(C)(C)OC(=O)N[C@H](CCCNC(N)=N[N+](=O)[O-])C(=O)NCc1ccc(CNC(N)=O)cc1 | 172

Row | Compound | melting point [°C]
51 | Cc1cn2nc(SCc3ccccc3)nc2nc1Cl | 179 to 181
52 | COc1ccc(-c2cc3cc(F)c(F)cc3[nH]2)cc1NS(=O)(=O)c1cccc(N)c1 | 235 to 238
53 | O=C1C2=C(CCCC2)C(=O)N1c1cc(O)ccc1F | 165
54 | CC(C)(C)OC(=O)Nc1cc(-c2nnc(SCc3cccc(F)c3)o2)ccn1 | 237 to 238
55 | O=C(c1ccc(Cl)cc1)c1nccc2ccccc12 | 100 to 101
56 | CCn1c(-c2ccc(Cl)cc2)n[nH]c1=O | 188 to 189
57 | COc1ccc(N2C(=O)C(O[Si](C(C)C)(C(C)C)C(C)C)C2c2ccco2)cc1 (stereo not given) | 109 to 110
58 | CN(C)CC1CNc2ccccc2C1 (stereo not given) | 85 to 89
59 | CCN(CC(C)(C)C)c1nc2c(cc1CN(Cc1cc(C(F)(F)F)cc(C(F)(F)F)c1)c1nnn(C)n1)c(C)nn2C | 72 to 73
60 | O=C(O)C(=O)NCCC(F)=C(F)F | 95 to 100
61 | O=C1N(Cc2ccc(OCCO)cc2)c2ccccc2C12COc1cc3c(cc12)OCCO3 (stereo not given) | 196 to 197
62 | CCCCC(CC)Cn1c2ccc(Br)cc2c2cc(Br)ccc21 (stereo not given) | 62.4 to 63.6
63 | COc1cc(OC)c2c(=O)[nH]c(-c3ccc(OCC(N)=O)cc3)nc2c1 | 309 to 311
64 | COc1ccc(NC(C)=S)cc1C | 88.5 to 89
65 | COC(=O)CCCC(=O)N(C)CCc1c[nH]c2ccccc12 | 101 to 102
66 | Oc1ccccc1N1c2ccccc2Sc2ccccc21 | 192 to 200
67 | COc1ccc(C(CCCCl)=NNC(N)=S)cc1 | 137 to 140
68 | CS(=O)(=O)N1CCC(C(=O)N(CCCN2CCC(Cc3ccccc3)CC2)c2ccccc2)CC1 | 116 to 118
69 | CCCNCC1CCN(c2nc3c(cc2F)c(=O)c(C(=O)O)cn3C2CC2)C1 (stereo not given) | 230 to 233
70 | COc1ccc2ncc(N)c(Nc3ccccc3Cl)c2c1 | 120 to 123
71 | COc1ccccc1N1CCN(C[C@@H](O)CN)CC1 | 76 to 80
72 | NS(=O)(=O)c1cc2ncc(O)cc2s1 | 248 to 250
73 | Cn1c(C(N)=O)c(-c2ccc(F)cc2)c2cccnc2c1=O | 329 to 330
74 | Nn1cc(Cl)c(=O)[nH]c1=O | 224 to 225
75 | CC(C)(C)c1ccc(C(=O)Nc2cn3nc(NC4CCCC4)ccc3n2)cc1 | 272 to 273

Row | Compound | melting point [°C]
76 | Cc1cn(CC(=O)N(CCNC(=O)OC(C)(C)C)CC(=O)O)c(=O)[nH]c1=O | 142 to 147
77 | CCOC(=O)c1cc(=O)c(O)c(-c2ccccc2)o1 | 155 to 157
78 | CC(C)(CN)c1ccc(C(=O)Nc2cn3cc(-n4ccnc4)ccc3n2)cc1 | 258 to 260
79 | CCN1C=C(N)N=C(C2CC2)c2ccccc21 | 93 to 95
80 | O=Cc1cc(Cl)c(F)cc1O | 103 to 104
81 | CC(C)C1(C)NC(c2ncc(Br)cc2C(=O)O)=NC1=O (stereo not given) | 206 to 208
82 | COc1ccc(C(=O)Nc2c(Cl)cncc2Cl)c2c1oc1ccc(NCC(=O)O)cc12 | > 260
83 | CCOc1ccc(F)cc1C(C)(C)CC(O)(Cn1ccc(=O)c2ccccc21)C(F)(F)F (stereo not given) | 195 to 196
84 | COC(=O)c1[nH]c(-c2ccccc2)c(NC(N)=O)c1C(=O)OC | 246 to 248
85 | Cc1nc(N)nc(N[C@@H]2CCc3ccccc32)n1 | 94 to 96
86 | CN1C(C)(C)CC(OC(=O)CCc2cc(-n3nc4ccc(S(=O)(=O)c5ccccc5)cc4n3)c(O)c(C(C)(C)C)c2)CC1(C)C | 45 to 52
87 | Cc1ccc(-c2c(CNC(=O)OC(C)(C)C)[nH]c(=O)c3ccc(C#N)cc23)cc1 | 156 to 157
88 | O=C1N(CC2COCCO2)c2ccccc2C12COc1cc3c(cc12)OCC3 (stereo not given) | 162 to 164
89 | CS(=O)(=O)N(Cc1ccco1)CC(O)(Cn1cncn1)c1ccc(Cl)cc1Cl (stereo not given) | 114 to 115
90 | CC(C)(C)OC(=O)c1ccc(C=NON)cc1 | 153 to 155
91 | COCOc1cc(OC)c(OCOC)c(CCCCCc2c(OC)c(OCOC)c(C)c(OC)c2OCOC)c1OC | 76 to 77
92 | CCn1c(=O)[nH]c2ncccc2c1=O | 240 to 241
93 | COc1ccc2ccc(O)c(N=O)c2c1 | 122 to 124
94 | CCCCC(=O)SCC(Cc1ccccc1)C(=O)Nc1cc(C)cc(C(=O)O)c1 (stereo not given) | 151 to 153
95 | COc1ccc(CC2SC(=O)NC2=O)c2c1N(Cc1ccc(NC(=O)c3ccc4ccccc4c3)cc1)C(=O)CC2 (stereo not given) | 202 to 208
96 | CCC(C)(C)C(=O)c1ccc(C(=O)O)cc1 | 128 to 129
97 | COC(=O)/C=C(C)/C=C/C1(c2cc3c(cc2C)C(C)(C)CCC3(C)C)CC=CS1 (stereo not given) | 152 to 153
98 | COc1cc(Nc2c(C#N)cnc3cc(C#C[Si](C)(C)C)sc23)c(Cl)cc1Cl | 169 to 171
99 | Cc1ccc(F)cc1C(=O)Nc1ccc(C(=O)N2Cc3ccnn3Cc3ccccc32)c(Cl)c1 | 137 to 140
100 | CN(C)CCNC(=O)c1cccc2cc[nH]c12 | 100 to 102
